Experimental data as given in patent US9938269B2, “Inhibitor compounds of phosphodiesterase type 10A” (ABBVIE INC., priority 2011, dated 2018).
pIC50: −log10 of the molar value. Counter-ions that a name gives are not always drawn.

Tests used:
[1] = Determination of the microsomal half-life, rat liver microsomes; settings: for microsomal CLint at 0.5 μM: rat, liver microsomes, pH 7.4; for Rat mCl (mikrosomal clearance): rat liver microsomes, 0.5 μM test substance, 0.25 mg microsomal protein, pH 7.4, 37° C., NADPH
[2] = Determination of the microsomal half-life, human liver microsomes; settings: for microsomal CLint at 0.5 μM: human, liver microsomes, pH 7.4; for Human mCl (mikrosomal clearance): human liver microsomes, 0.5 μM test substance, 0.25 mg microsomal protein, pH 7.4, 37° C., NADPH
[3] = molecular target: T1, PDE10A (human) (Homo sapiens, UniProt Q9Y233); assay: Measurement of PDE activity (HTRF cAMP kit), human PDE10A; assay type: biochemical; settings: PDE enzymatic reaction, substrate 20 nM for PDE10, 60 minutes at 29 C
T1 construct: purchased BPS Bioscience
T1 sequence (Q9Y233 whole entry): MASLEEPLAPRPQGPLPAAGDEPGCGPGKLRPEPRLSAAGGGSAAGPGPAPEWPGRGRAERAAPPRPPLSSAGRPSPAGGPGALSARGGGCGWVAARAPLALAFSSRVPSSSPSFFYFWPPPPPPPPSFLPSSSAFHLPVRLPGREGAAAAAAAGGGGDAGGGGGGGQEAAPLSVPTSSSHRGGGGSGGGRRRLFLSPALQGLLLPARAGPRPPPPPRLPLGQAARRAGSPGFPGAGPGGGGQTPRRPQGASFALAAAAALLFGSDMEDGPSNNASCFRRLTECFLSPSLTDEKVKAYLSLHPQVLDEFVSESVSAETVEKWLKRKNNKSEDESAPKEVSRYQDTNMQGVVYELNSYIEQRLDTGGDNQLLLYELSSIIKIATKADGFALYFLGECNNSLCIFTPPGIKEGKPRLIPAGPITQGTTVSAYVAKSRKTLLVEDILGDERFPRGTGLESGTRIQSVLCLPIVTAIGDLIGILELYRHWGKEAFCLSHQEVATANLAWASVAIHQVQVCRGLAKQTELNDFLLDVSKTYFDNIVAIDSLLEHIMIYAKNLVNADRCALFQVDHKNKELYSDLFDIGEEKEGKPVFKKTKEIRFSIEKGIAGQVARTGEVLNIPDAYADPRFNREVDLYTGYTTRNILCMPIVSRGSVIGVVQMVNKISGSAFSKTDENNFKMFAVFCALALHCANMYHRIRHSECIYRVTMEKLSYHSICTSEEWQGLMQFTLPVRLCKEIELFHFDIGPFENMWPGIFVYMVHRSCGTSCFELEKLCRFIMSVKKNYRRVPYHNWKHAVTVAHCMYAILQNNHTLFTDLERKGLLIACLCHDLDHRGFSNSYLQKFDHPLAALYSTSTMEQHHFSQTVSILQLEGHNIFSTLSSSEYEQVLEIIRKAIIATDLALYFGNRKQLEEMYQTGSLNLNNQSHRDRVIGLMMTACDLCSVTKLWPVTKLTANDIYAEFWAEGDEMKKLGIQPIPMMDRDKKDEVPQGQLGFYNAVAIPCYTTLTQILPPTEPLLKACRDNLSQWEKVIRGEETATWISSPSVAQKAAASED
Summary of the method: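 Recombinant human PDE10A (10–250 pM range across PDEs) with 20 nM cAMP substrate in 20 mM Tris-HCl pH 7.5, 10 mM MgCl2, 0.1% BSA, compound pre-mixed with enzyme. Ran 60 min at 29 °C. Remaining cAMP read by HTRF, converted to % of uninhibited activity, and IC50 fitted.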

| Structure (SMILES) | microsomal CLint at 0.5 μM [1] [µL/min/mg] | microsomal CLint at 0.5 μM [2] [µL/min/mg] | pIC50 [3] | Rat mCl (mikrosomal clearance) [1] | Human mCl (mikrosomal clearance) [2] |
| --- | --- | --- | --- | --- | --- |
| CN1CCN(C2CCN(c3cccc4c3C(=O)N(CCc3ccc5ccccc5n3)C4)CC2)CC1 [Example 100, 7-[4-(4-Methyl-piperazin-1-yl)-piperidin-1-yl]-2-(2-quinolin-2-yl-ethyl)-2,3-dihydro-isoindol-1-one trifluoroacetate] | < 100 | 100 to 220 |  |  |  |
| O=C1c2c(cccc2-c2ccncc2)CN1CCc1cccc(-c2ncccn2)c1 [Example 121, 7-(Pyridin-4-yl)-2-(3-(pyrimidin-2-yl)phenethyl)isoindolin-1-one] |  | 100 to 220 | 6.30 to 6.70 |  |  |
| O=C1c2c(cccc2-c2ccncc2)CN1CCc1ccnc(-c2ccccc2)n1 [Example 122, (2-(2-Phenylpyrimidin-4-yl)ethyl)-7-(pyridin-4-yl)isoindolin-1-one] |  |  |  | + (+: 100-220 μl min^−1 mg^−1) | ++ (++: 100 μl min^−1 mg^−1) |
| O=C1c2c(cccc2OCc2ccncc2)CN1CCc1ccc2ccccc2n1 [Example 128, 7-(Pyridin-4-ylmethoxy)-2-(2-quinolin-2-yl-ethyl)-2,3-dihydro-isoindol-1-one] | 100 to 220 | > 220 |  |  |  |
| O=C1c2c(cccc2OCc2ccccn2)CN1CCc1ccc2ccccc2n1 [Example 129, 7-(Pyridin-2-ylmethoxy)-2-(2-quinolin-2-yl-ethyl)-2,3-dihydro-isoindol-1-one] | < 100 | 100 to 220 |  |  |  |
| CN1CCN(c2cccc3c2CN(CCc2ccc4ccccc4n2)C3=O)CC1 [Example 144, 4-(4-Methyl-piperazin-1-yl)-2-(2-quinolin-2-yl-ethyl)-2,3-dihydro-isoindol-1-one] | 100 to 220 | < 100 |  |  |  |
| C=C(C)c1ccc(Oc2ccc(-c3cccc4c3C(=O)N(CCc3ccc5ccccc5n3)C4)cc2)cc1 [Example 146, 7-[4-(4-Isopropenyl-phenoxy)-phenyl]-2-(2-quinolin-2-yl-ethyl)-2,3-dihydro-isoindol-1-one] | 100 to 220 | > 220 |  |  |  |
| C[C@@H]1CN(c2cccc3c2C(=O)N(CCc2ccc4ccccc4n2)C3)CC[C@@H]1c1ccc(OC(F)(F)F)cc1F.O=C(O)C(F)(F)F [Example 147, 7-[(3S,4S)-4-(2-Fluoro-4-trifluoromethoxy-phenyl)-3-methyl-piperidin-1-yl]-2-(2-quinolin-2-yl-ethyl)-2,3-dihydro-isoindol-1-one trifluororacetate] |  |  |  | + (+: 100-220 μl min^−1 mg^−1) | ∘ (∘ not avialable or >220 μl min^−1 mg^−1) |
| CN1CC2CN(c3cccc4c3C(=O)N(CCc3ccc5ccccc5n3)C4)CC2C1 (stereo not drawn) [Example 154, 7-(5-Methyl-hexahydro-pyrrolo[3,4-c]pyrrol-2-yl)-2-(2-quinolin-2-yl-ethyl)-2,3-dihydro-isoindol-1-one] |  | < 100 |  | −∘ |  |
| CC1(O)CCC(Nc2ccc(-c3cccc4c3C(=O)N(CCc3ccc5ccccc5n3)C4)cc2Cl)CC1 (stereo not drawn) [Example 155, 7-[3-Chloro-4-(4-hydroxy-4-methyl-cyclohexylamino)-phenyl]-2-(2-quinolin-2-yl-ethyl)-2,3-dihydro-isoindol-1-one hydrochloride] | 100 to 220 | > 220 |  |  |  |
| CCN1CCN(C2CCN(c3cccc4c3C(=O)N(CCc3ccc5ccccc5n3)C4)CC2)CC1 [Example 157, 7-[4-(4-Ethyl-piperazin-1-yl)-piperidin-1-yl]-2-(2-quinolin-2-yl-ethyl)-2,3-dihydro-isoindol-1-one trifluoroacetate] | < 100 | > 220 |  |  |  |
| O=C1c2c(cccc2N2CCN(c3cccnc3)CC2)CN1CCc1ccc2ccccc2n1 [Example 159, 7-(4-Pyridin-3-yl-piperazin-1-yl)-2-(2-quinolin-2-yl-ethyl)-2,3-dihydro-isoindol-1-one trifluoroacetate] | 100 to 220 | > 220 |  |  |  |
| CN1CCN(Cc2ccc(-c3cccc4c3C(=O)N(CCc3ccc5ccccc5n3)C4)cc2)CC1 [Example 167, 7-[4-(4-Methyl-piperazin-1-ylmethyl)-phenyl]-2-(2-quinolin-2-yl-ethyl)-2,3-dihydro-isoindol-1-one trifluoroacetate] | 100 to 220 | > 220 |  |  |  |
| Cc1ccc(COc2cccc3c2C(=O)N(CCc2ccc4ccccc4n2)C3)cn1 [Example 172, 7-(6-Methyl-pyridin-3-ylmethoxy)-2-(2-quinolin-2-yl-ethyl)-2,3-dihydro-isoindol-1-one] | 100 to 220 | 100 to 220 |  |  |  |
| CC1CCN(c2cccc3c2C(=O)N(CCc2ccc4ccccc4n2)C3)CC1N (stereo not drawn) [Example 174, 7-(3-Amino-4-methyl-piperidin-1-yl)-2-(2-quinolin-2-yl-ethyl)-2,3-dihydro-isoindol-1-one] | 100 to 220 | < 100 |  |  |  |
| CN1CCN(Cc2cccc3c2C(=O)N(CCc2ccc4ccccc4n2)C3)CC1 [Example 177, 7-(4-Methyl-piperazin-1-ylmethyl)-2-(2-quinolin-2-yl-ethyl)-2,3-dihydro-isoindol-1-one] | < 100 | < 100 |  |  |  |

| Structure (SMILES) | microsomal CLint at 0.5 μM [1] [µL/min/mg] | microsomal CLint at 0.5 μM [2] [µL/min/mg] | pIC50 [3] | Rat mCl (mikrosomal clearance) [1] | Human mCl (mikrosomal clearance) [2] |
| --- | --- | --- | --- | --- | --- |
| O=C1c2c(cccc2N2CC3CNCC3C2)CN1CCc1ccc2ccccc2n1 (stereo not drawn) [Example 192, 7-(Hexahydro-pyrrolo[3,4-c]pyrrol-2-yl)-2-(2-quinolin-2-yl-ethyl)-2,3-dihydro-isoindol-1-one] | > 220 | < 100 |  |  |  |
| Cn1nccc1-c1ccnc2c1C(=O)N(CCc1nc3ccccn3n1)C2 [Example 213, 4-(2-Methyl-2H-pyrazol-3-yl)-6-(2-[1,2,4]triazolo[1,5-a]pyridin-2-yl-ethyl)-6,7-dihydro-pyrrolo[3,4-b]pyridin-5-one trifluoroacetate] | < 100 | < 100 |  |  |  |
| O=C1c2c(cccc2N2CC[C@@H]3NCC[C@@H]3C2)CN1CCc1ccc2ccccc2n1 [Example 220, 7-(3aR,7aS)-Octahydro-pyrrolo[3,2-c]pyridin-5-yl-2-(2-quinolin-2-yl-ethyl)-2,3-dihydro-isoindol-1-one trifluoroacetate] | > 220 | 100 to 220 |  |  |  |
| CN1CCN(c2ccnc3c2C(=O)N(CCc2nc4ccccc4n2C)C3)CC1 [Example 226, 6-[2-(1-Methyl-1H-benzoimidazol-2-yl)-ethyl]-4-(4-methyl-piperazin-1-yl)-6,7-dihydro-pyrrolo[3,4-b]pyridin-5-one trifluoroacetate] | < 100 | < 100 |  |  |  |
| CC1CN(c2cccc3c2C(=O)N(CCc2ccc4ccccc4n2)C3)CCO1 (stereo not drawn) [Example 228, 7-(2-Methyl-morpholin-4-yl)-2-(2-quinolin-2-yl-ethyl)-2,3-dihydro-isoindol-1-one trifluoroacetate] | 100 to 220 | > 220 |  |  |  |
| CN(C)CC1CN(c2cccc3c2C(=O)N(CCc2ccc4ccccc4n2)C3)CCO1 (stereo not drawn) [Example 229, 7-(2-Dimethylaminomethyl-morpholin-4-yl)-2-(2-quinolin-2-yl-ethyl)-2,3-dihydro-isoindol-1-one trifluoroacetate] | < 100 | < 100 |  |  |  |
| O=C1c2c(cccc2N2CCOCC2)CN1CCc1nc2ccccn2n1 [Example 231, 7-Morpholin-4-yl-2-(2-[1,2,4]triazolo[1,5-a]pyridin-2-yl-ethyl)-2,3-dihydro-isoindol-1-one] | < 100 | < 100 |  |  |  |
| O=C1c2c(cccc2N2CCS(=O)(=O)CC2)CN1CCc1nc2ccccn2n1 [Example 232, 7-(1,1-Dioxothiomorpholin-4-yl)-2-(2-[1,2,4]triazolo[1,5-a]pyridin-2-yl-ethyl)-2,3-dihydro-isoindol-1-one] | < 100 | < 100 |  |  |  |
| CN1CCN(c2cccc3c2C(=O)N(CCc2nc4ccccn4n2)C3)CC1 [Example 233, 7-(4-Methyl-piperazin-1-yl)-2-(2-[1,2,4]triazolo[1,5-a]pyridin-2-yl-ethyl)-2,3-dihydro-isoindol-1-one] | < 100 | < 100 |  |  |  |
| COc1ccc(-c2cccc3c2C(=O)N(CCc2cn4ccccc4n2)C3)cc1 [Example 237, 2-(2-Imidazo[1,2-a]pyridin-2-yl-ethyl)-7-(4-methoxy-phenyl)-2,3-dihydro-isoindol-1-one] | 100 to 220 | 100 to 220 |  |  |  |
| O=C1c2c(N3CCOCC3)ccnc2CN1CCc1cc2ccccc2o1 [compound 397, 6-[2-(Benzofuran-2-yl)ethyl]-4-morpholino-7H-pyrrolo[3,4-b]pyridin-5-one] | 100 to 220 |  |  |  |  |
| O=C1c2c(-c3ccsc3)ccnc2CN1CCc1cn2ccccc2n1 [compound 523, 6-(2-Imidazo[1,2-a]pyridin-2-ylethyl)-4-(3-thienyl)-7H-pyrrolo[3,4-b]pyridin-5-one] |  |  | > 7.00 |  |  |
| O=C1c2c(N3CCC(F)(F)CC3)ccnc2CN1CCc1nc2ccccc2s1 [compound 527, 6-[2-(1,3-Benzothiazol-2-yl)ethyl]-4-(4,4-difluoro-1-piperidyl)-7H-pyrrolo[3,4-b]pyridin-5-one trifluoroacetate] |  |  | > 7.00 |  |  |
| O=C1c2c(OCCF)ccc(-c3ccncc3)c2C(=O)N1CCc1ccc2ccccc2n1 [compound 532, 4-(2-Fluoro-ethoxy)-7-pyridin-4-yl-2-(2-quinolin-2-yl-ethyl)-isoindole-1,3-dione] |  |  | > 7.00 |  |  |
| O=C1c2c(-c3ccncc3)ccc(OCCF)c2CN1CCc1ccc2ccccc2n1 [compound 533, 4-(2-Fluoro-ethoxy)-7-pyridin-4-yl-2-(2-quinolin-2-yl-ethyl)-2,3-dihydro-isoindol-1-one] |  |  | > 7.00 |  |  |
